Values quoted from earlier work, collected in US20250082651A1, “GANAXOLONE FOR USE IN TREATING GENETIC EPILEPTIC DISORDERS” (Marinus Pharmaceuticals, Inc., priority 2017, published 2025).

Tests used:
[1] = system: patients with CDKL5-related epilepsy; settings: CDKL5 deficiency disorder patients; cited from earlier work
[2] = human plasma; cited from earlier work

Row | SMILES | Responder rate at 12 months [1] [%] | Half-life [2]
1 | CCCC(CCC)C(=O)O [valproic acid] | 9 | 
2 | CC(=O)[C@H]1CC[C@H]2[C@@H]3CC[C@H]4C[C@H](O)CC[C@]4(C)[C@H]3CC[C@]12C [Allopregnanolone, 3α,5α-tetrahydroprogesterone, reference compound] |  | about 45 minutes
